Laboratory results taken from ChEMBL document CHEMBL1157234, “Isoflavonoids with antiestrogenic activity from Millettia pachycarpa” (J Nat Prod, 2006).

molecular target: T1, Estrogen receptor (Homo sapiens, UniProt P03372); experiment: Antiestrogenic activity at estrogen receptor alpha expressed in yeast cells assessed as inhibition of 17-beta-estradiol-induced beta-galactosidase activity by two hybrid assay; assay type: cell-based
T1 sequence (P03372 whole entry): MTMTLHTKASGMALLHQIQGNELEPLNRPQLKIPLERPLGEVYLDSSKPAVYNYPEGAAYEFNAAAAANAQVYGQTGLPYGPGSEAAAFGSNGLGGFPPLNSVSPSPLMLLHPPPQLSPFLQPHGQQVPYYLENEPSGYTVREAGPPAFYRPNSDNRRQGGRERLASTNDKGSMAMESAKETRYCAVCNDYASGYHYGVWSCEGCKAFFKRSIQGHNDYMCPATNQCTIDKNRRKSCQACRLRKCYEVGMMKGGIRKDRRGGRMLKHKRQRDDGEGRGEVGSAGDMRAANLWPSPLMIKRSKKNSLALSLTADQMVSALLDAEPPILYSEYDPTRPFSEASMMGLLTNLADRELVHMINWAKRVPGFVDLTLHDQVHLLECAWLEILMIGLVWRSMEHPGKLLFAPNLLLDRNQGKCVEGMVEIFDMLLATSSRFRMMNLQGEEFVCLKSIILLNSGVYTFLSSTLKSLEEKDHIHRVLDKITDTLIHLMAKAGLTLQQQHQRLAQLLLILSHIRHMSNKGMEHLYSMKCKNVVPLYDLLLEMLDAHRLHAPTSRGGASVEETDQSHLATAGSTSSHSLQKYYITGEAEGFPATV

IC50 [µM]	SMILES
18	C=C(C)C(O)Cc1c(O)c(CC=C(C)C)c(O)c2c(=O)c(-c3ccc(O)c(O)c3)coc12 (racemic)
13	CC(C)=CCc1c2c(c3occ(-c4ccc(O)c(O)c4)c(=O)c3c1O)CC(C(C)(C)O)O2 (racemic) [(+/-)-FUROWANIN B]
29	C=C(C)C(O)Cc1c(O)c(CC=C(C)C)c2occ(-c3ccc(O)c(O)c3)c(=O)c2c1O (racemic) [MILLEWANIN G]
